Data set [1] concerns NMDA receptors. The following applies: concentration giving complete protection of neurons against 200 μM NMA, cell culture; cited from earlier work.
In data set [2] the target is NMDA receptors. Conditions: concentration suppressing MK-801 binding by 50%, cited from earlier work.
Data set [3] deals with rats. Conditions: from 0.5 hr after treatment for 1 hr.
Protocol: To address these issues, rats with sciatic nerve ligations, and rats with only sham sciatic nerve ligations, were treated with various doses of ethopropazine, clonidine, or the two agents together. They were then evaluated, using the following battery of sensorimotor and activity tests:
(5) One Hour Activity Level.
Locomotor activity was evaluated beginning at 0.5 hr following drug treatment, and lasting for 1 hr. In this test, the rat was placed in a cage equipped with three pairs of photoelectric cells, placed at regular intervals across the width of the cage, so that the animal's activity was monitored by automatically recording the number of “beam breaks” registered as the animal moved about the cage.
Data set [4] concerns rats. The data set can be described thus: Sensorimotor battery (plank, walking initiation, platform, inclined screen, activity). Format: in vivo, rat. Conditions: treatment regimens that proved effective for relieving neuropathic pain; 1 hour post-treatment. As for the experimental part:
Testing was done at 1 hour post-treatment, which corresponded with the time of peak effect of drugs on paw withdrawal latency. Briefly, the sensorimotor battery consisted of five tests (Wozniak et al 1990) that are known to be able to detect significant muscle weakness, incoordination, somnolence, or other behavioral impairments.
For all of the tests in this sensorimotor battery, all treatment groups first received a habituation trial, to allow each rat to acclimate to the test situation. In all tests, protective padding was placed under any elevated apparatuses, to prevent pain or injury from falling. The tests performed were as follows:
A rat was timed for how long it could remain on a wooden plank that is 3 cm wide, elevated 61 cm above the floor.
Each rat was placed in the middle of a square outlined by white cloth tape (50×50 cm) on a smooth black surface of a large table top, and was timed for how long was required for the rat to leave the square (place all four paws outside the square).
Each rat was timed for how long it could remain perched on an elevated (61 cm above the floor) platform of small dimensions (7.6×15.2 cm).
Each rat was placed in the middle of an elevated (61 cm above the floor) wire mesh grid (8 squares per 10 cm) which was inclined at 60 degrees with the floor. […]

Data set [5] concerns rats with sciatic nerve ligation. Put plainly: Sciatic nerve ligation model of neuropathic pain, paw lifting latency to thermal stimulus. Format: in vivo, rat. An excerpt:
In all experiments, one hind limb of the rat has undergone a surgical operation in which a loop (“ligature”) of suture material was placed around the sciatic nerve and gently tightened. Over the course of several days, this caused chronic irritation to the nerve, driving it into a “hyper-sensitized” condition of the type which occurs in damaged neuronal circuits that cause neuropathic pain in humans.
After the nerve ligation operation, a waiting period of 8 days elapsed, to allow the ligated limb to reach a peak of hypersensitized chronic irritation of the ligated sciatic nerve. This sciatic nerve model was first described by Bennet and Xie 1988, and is widely regarded as a useful animal model for studying neuropathic pain.
To test the degree of sensitivity in the ligated limb vs. the unoperated limb, a beam of light (thermal stimulus) is applied to the soles (i.e., the undersurface area which is not covered by fur) of the hind paws, by shining a focused beam of light onto the sole, through the glass floor of a testing chamber. This beam was sufficiently hot to generate some discomfort, without posing any risk of burning the paw. The number of seconds that elapsed after commencement of the thermal stimulus, until the rat lifted up the paw, were detected electronically and recorded automatically.
Each limb is tested initially for thermal pain sensitivity, before the ligation operation is performed (pre-surgery), to ensure that both limbs had the same degree of pain sensitivity. After 8 days following surgery, each limb was tested again, before any treatment was given (pre-treatment), to ensure that the nerve ligature successfully provoked a hyper-irritable condition in the ligated limb. After drug treatment (at time=0, on the graphs), each limb was tested for thermal pain sensitivity at hourly intervals, for 4 hours.
The first set of in vivo tests involved sciatic nerve ligation in rats, using procedures described in Bennett and Xie, Pain 33: 87-107 (1988). This test involves surgically placing and tightening a loop of suture material around the sciatic nerve in one hind leg of a rat; the other hind leg serves as a control. Within about a week, the ligated sciatic nerve becomes irritated and reaches a hyper-responsive “kindled” state, where it will respond rapidly to even a mild stimulus that is not painful to an untampered leg. As such, it offers a model of what happens in pain pathways that have become pathologically hypersensitized in a human suffering from neuropathic pain.
In these tests, on the 8th day after surgery, the rat is placed in a testing device which electronically measures how quickly or slowly it acts, in lifting up a paw in response to a standardized mild warming (thermal) stimulus. The warming stimulus is generated by a light beam which shines onto the bottom surface of the paw, through the glass floor of the testing enclosure. The device is electronically controlled and automated, and measurements are made of the number of seconds that elapse after the light beam begins to shine on the bottom of the paw, until the rat lifts its paw.
To establish baseline values for pain sensitivity of each limb in each group of animals, each limb was tested initially for thermal pain sensitivity before the ligation operation was performed (pre-surgery). After 8 days, each limb was again tested before any drug treatment was administered (shown by the “pre-treatment” legend in all graphs). After drug administration, each limb was tested for thermal pain sensitivity at hourly intervals, for 4 hours.
Saline controls and all drugs were administered by intraperitoneal (IP) injection, i.e., hypodermic injection into the abdominal region. This is a convenient and reliable method of drug administration, for tests involving rats.
The test results are shown graphically in the Figures; each circle indicates the mean value, and the vertical bars show the standard error of the mean (SEM). […]

Data set [6] has as its system NMDA receptors. Put plainly: Protection of neurons in cell culture against 200 μM NMA (Olney et al 1987). The data set is classed as cell-based. The following applies: ratio of protective concentrations. How it is done: In Table 1, the “protective concentration” for each compound was the micromolar concentration of that compound which provided complete protection for neurons, in cell culture tests, against a 200 μM concentration of NMA (i.e., a racemic mixture of the D and L stereoisomers of N-methyl-aspartate; the D isomer, which makes up 50% of the racemic mixture, is highly toxic to neurons, while the L isomer is somewhat less toxic).

The mark [7] stands for this setting: clonidine alone, IP, 0.075 mg/kg.

Read-outs that look alike come from different tables or passages of the source.

In the case of `OC(CCN1CCCCC1)(c1ccccc1)C1CC2C=CC1C2` (centres unmarked) [Biperiden], the Protective concentration in data set [1] was 200 µM.

For the molecule `CN(C)CCCN1c2ccccc2Sc2ccc(Cl)cc21` [Chlorpromazine], the IC50 in data set [2] was 45.9 ± 11.5 µM.

Regarding `CNCCCN1c2ccccc2CCc2ccccc21` [Desipramine], in data set [2], the IC50 is 7.41 ± 1.32 µM.

As to `CN(C)CCOC(c1ccccc1)c1ccccc1` [Diphenhydramine], the Protective concentration in data set [1] is 250 µM.

Turning to `CCN(CC)C(C)CN1c2ccccc2Sc2ccccc21` (centres unmarked) [Ethopropazine], the activity level entry in data set [3] (ethopropazine alone, 50 mg/kg) is “significantly reduced activity level”. Further, in data set [4], the “performance on sensorimotor tests” value was “None of the ethopropazine or combined ethopropazine-plus-clonidine treatment regimens that proved effective for relieving neuropathic pain was associated with any impaired performance”. Besides, the Protective concentration in data set [1] is 25 µM. In addition, the “paw lifting latency curves of ligated and control limbs” value in data set [5] (ethopropazine alone, FIGS. 2B and 2C (20 and 30 mg/kg), 2 and 3 hour testing times) is “both curves rose, substantially”. In addition, the “pain sensitivity (paw lifting latency)” value was “significantly changed the level of pain sensitivity in the ligated limb” in data set [5] (ethopropazine alone, IP, 50 mg/kg, FIG. 2D) and “did not significantly change the pain sensitivity in either limb” in data set [5] (ethopropazine alone, IP, 10 to 30 mg/kg, FIG. 2).

With `CNC1(c2ccccc2Cl)CCCCC1=O` (centres unmarked) [Ketamine], in data set [6], the “potency relative to ethopropazine (times more potent)” value was found to be 5 times and the “potency relative to procyclidine (times more potent)” value is on record as 3 times. The Protective concentration in data set [1] was 5 µM. In addition, the IC50 in data set [2] (comparator in text) is 1.02 ± 0.33 µM.

Turning to `CNCCC=C1c2ccccc2CCc2ccccc21` [Nortriptyline], the IC50 in data set [2] is 21 ± 0.67 µM.

`OC(CCN1CCCC1)(c1ccccc1)C1CCCCC1` (centres unmarked) [Procyclidine]: the Protective concentration in data set [1] is 15 µM.

`CN1[C@@H]2C[C@@H](OC(=O)[C@H](CO)c3ccccc3)C[C@H]1[C@@H]1O[C@@H]12` [Scopolamine]: the Protective concentration in data set [1] is greater than 3000 µM.

Turning to `OC(CCN1CCCCC1)(c1ccccc1)C1CCCCC1` (centres unmarked) [Trihexyphenidyl], in data set [1], the Protective concentration was 125 µM.

Regarding `Clc1cccc(Cl)c1N=C1NCCN1` [clonidine], the activity level entry in data set [3] (clonidine alone, 0.050 mg/kg) is “reduce activity levels, but only slightly and to a barely significant degree”; in data set [3] (clonidine alone, 0.075 mg/kg), “substantially reduced activity levels”. Moreover, the “relief of neuropathic pain” value in data set [5] (clonidine alone, IP, 0.025 mg/kg and 0.05 mg/kg) is “no significant relief of neuropathic pain”; in data set [5] (setting [7]), “significant and relatively sustained neuropathic pain relief”. For the same molecule, the sedation observed result in data set [5] (setting [7]) was “significant sedation”.

For `c1ccc(C2(N3CCCCC3)CCCCC2)cc1` [phencyclidine], in data set [6], the “potency relative to ethopropazine (times more potent)” value turned out to be 50 times and the “potency relative to procyclidine (times more potent)” value is 30 times. Further, in data set [1], the Protective concentration is 0.5 µM.

The term IC50 denotes the concentration at which inhibition is half-maximal.

Values taken from patent publication US20020177592A1, “Combination of adrenergic agonist and tricyclo-alkylamine for relieving chronic pain without adverse side effects” (priority 1998, published 2002).
